The record followed here is paper PMC10107299, “Neutralizing the Impact of the Virulence Factor LecA from Pseudomonas aeruginosa on Human Cells with New Glycomimetic Inhibitors” (Angewandte Chemie (International Ed. in English), 2023).

The nature of series [1]: In vitro metabolic stability, mouse liver microsomes. The class given is in vitro ADME. The settings on record: N=3, read-out: CLint MLM. How it is done:
Acetonitrile and caffeine were dispensed using a Mantis Formulatrix. Then samples were centrifuged for 20 min at 2.270 x g at 4 °C and the supernatants were transferred to 96-well Greiner V-bottom plates. Peak areas of each compound and of the internal standard were analyzed using the MultiQuant 3.0 software (AB Sciex). Peak areas of the respective compound were normalized to the internal standard peak area and to the respective peak areas at time point 0 min: (C/D)/(A/B) with A: peak area of the compound at time point 0 min, B: peak area of the internal standard at time point 0 min, C: peak area of the compound at the respective time point, D: peak area of the internal standard at the respective time point.
In vitro metabolic stability assay
Liver microsomes (mouse and human, Thermo Fisher) were thawed slowly on ice. 20 mg/mL of microsomes, 2 µL of a 100 µM solution of every compound and 183 µL of 100 mM phosphate buffer were incubated 5 min at 37 °C in a water bath. Reactions were initiated using 10 µL of 20 mM NADPH (CarlRoth). Samples were incubated in three replicates at 37 °C under gentle agitation at 150 rpm. At 0, 5, 15, 30, and 60 min, reactions were terminated by the addition of 180 µL acetonitrile using a Mantis Formulatrix dispenser. Samples were vortexed for 5 min using an Eppendorf MixMate vortex mixer and centrifuged at 2.270 x g for 20 min at 4 °C. The supernatants were transferred to 96-well Greiner V-bottom plates, sealed and analyzed according to the section HPLC-MS analysis. Peak areas of the respective time point of the compounds were normalized to the peak area at time point 0 min. Then half-life was calculated using linear regression (Microsoft Excel). Clint [µL/min/mg protein] was calculated using the following formula: […]

The next series addresses T1, LecA (Pseudomonas aeruginosa, UniProt Q05097).
T1 construct: made in house
Put plainly: Inhibition of LecA-AF488 binding to H1299 cells, flow cytometry. The class given is cell-based. The settings on record: for pIC50: IC50 for inhibition of LecA binding to H1299 cells, N=3; for pIC50 / Decrease of LecA binding to H1299 cells: 0.16 μM LecA-AF488, flow cytometry; for Inhibition of lectin binding to the cells: 7.5 μM and above, flow cytometry. How it is done:
Next, we investigated the two most promising compounds H2 and L2 for their efficacy to inhibit LecA binding to H1299 human lung epithelial cells using flow cytometry and confocal microscopy. To this end, LecA was fluorescently labelled with Alexa Fluor 488 NHS ester (LecA‐AF488), incubated with varying concentrations of the inhibitors (100 nM to 10 μM) and subsequently added to the cells.
For flow cytometry analysis, inhibitors were preincubated with 0.16 μM LecA prior addition to the H1299 cells. After incubation for 30 min, fluorescence intensity was recorded at the flow cytometer. […] In contrast, 10 μM of the corresponding monovalent ligands G2 and K2 were required for 50 % inhibition (Figure S10).
H1299 cells were detached with 2 mL of 1.5 mM EDTA in PBS, 1.2 × 10^5 cells were counted and transferred to a U-bottom 96 well plate (Sarstedt AG & Co. KG, Numbrecht, Germany).
For flow cytometry assay, the optimal LecA concentration was established following a lectin titration (0.04–0.5 µM LecA-AF488) with H1299 cells. The histogram of fluorescence intensity […]
µM LecA-AF488 was used in flow cytometry experiments. LecA-AF488 was preincubated with PNPG, G2, K2, H2 or L2 in RPMI medium, for 20 min at room temperature and protected from light. The ligand-LecA solution was then added to the cells and further incubated for 30 min at 4 °C. H1299 cells were resuspended with medium in absence of lectin or inhibitor represented the negative assay control, while cells incubated only with LecA-AF488 (no inhibitor) served as the positive control. Subsequently, cells were centrifuged at 1600 × g for 3 min at 4 °C to remove unbound lectin. The samples were then washed twice with ice-cold FACS buffer (PBS (-/-) supplemented with 3% FCS (v/v)). After the last washing step, the cells were re-suspended in FACS buffer and transferred to FACS tubes (Kisker Biotech GmbH Co. KG, Steinfurt, Germany) on ice and in absence of light. The fluorescence intensity of treated cells was measured with FACS Gallios from Beckman Coulter. […]
For orientation: In flow cytometry, cells or beads pass a laser one at a time.

The subject of the next series is H1299 cells. Nature of the series: Cell proliferation (MTT) cytotoxicity assay. The class given is cell-based, human. The settings on record: 24 h; for Cytotoxicity on H1299 cells: 10–100 μM; for Inhibition of cell proliferation: 500 and 750 μM. How it is done: Additionally, the cytotoxicity of sulfonated ligands K2 and L2 on H1299 cells was evaluated prior to the invasion assay (Figure S12). […]
Cell proliferation (MTT) assay
The MTT assay (MTT Cell Proliferation Kit, Roche Holding AG, Basel, Switzerland) was used to evaluate the cytotoxicity of inhibitors on H1299 cells. 3.5 x 10^4 cells per well were transferred to a 96-well plate with a U-bottom. The cells were centrifuged at 1600 x g for 3 min at room temperature. The cell pellet was resuspended in 100 μL of inhibitor solutions (1–750 µM) and transferred to a 96-well flat-bottomed plate. The cells were incubated for 24 h at 37 °C.
Subsequently, 10 μL of MTT labelling solution was added to each well and the cells were incubated for another 4 h at 37 °C. Afterwards, 100 μL of the kit solubilization reagent were added to each well and the plate was incubated at 37 °C overnight. The next day, the absorbance of the samples was measured at 550 nm using a BioTek microplate reader (BioTek Instruments

pIC50: −log10 of the molar value. Some results are limits rather than exact numbers.

T1 sequence (Q05097 whole entry): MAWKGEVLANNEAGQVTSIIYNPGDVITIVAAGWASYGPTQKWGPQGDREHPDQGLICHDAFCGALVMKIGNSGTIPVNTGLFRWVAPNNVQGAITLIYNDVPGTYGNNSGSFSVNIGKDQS

On to `O=C(/C=C/c1ccc(O[C@@H]2O[C@H](CO)[C@H](O)[C@H](O)[C@H]2O)cc1)Nc1ccc(OCCOc2ccc(NC(=O)/C=C/c3ccc(O[C@@H]4O[C@H](CO)[C@H](O)[C@H](O)[C@H]4O)cc3)cc2)cc1` [Compound D1], for which the microsomal CLint at 1 µM in series [1] was determined as 22.4 µL/min/mg.
Regarding `O=C(CCc1ccc(O[C@@H]2O[C@H](CO)[C@H](O)[C@H](O)[C@H]2O)cc1)Nc1ccc(OCCOc2ccc(NC(=O)CCc3ccc(O[C@@H]4O[C@H](CO)[C@H](O)[C@H](O)[C@H]4O)cc3)cc2)cc1` [Compound D2], in series [1], the microsomal CLint at 1 µM was found to be 29.6 µL/min/mg.
What is called pIC50 is the IC50 on a negative log10 scale, so that one unit is a factor of ten. On to `COc1ccc(NC(=O)CCc2ccc(O[C@@H]3O[C@H](CO)[C@H](O)[C@H](O)[C@H]3O)cc2)cn1` [Compound G2], for which the negative-log IC50 (pIC50) on LecA was 5.55.
With `O=C(/C=C/c1ccc(O[C@@H]2O[C@H](CO)[C@H](O)[C@H](O)[C@H]2O)cc1)Nc1ccc(OCCOc2ccc(NC(=O)/C=C/c3ccc(O[C@@H]4O[C@H](CO)[C@H](O)[C@H](O)[C@H]4O)cc3)cn2)nc1` [Compound H1], in series [1], the microsomal CLint at 1 µM turned out to be 17.5 µL/min/mg.
Consider `O=C(CCc1ccc(O[C@@H]2O[C@H](CO)[C@H](O)[C@H](O)[C@H]2O)cc1)Nc1ccc(OCCOc2ccc(NC(=O)CCc3ccc(O[C@@H]4O[C@H](CO)[C@H](O)[C@H](O)[C@H]4O)cc3)cn2)nc1` [Compound H2], for which the “Decrease of LecA binding to H1299 cells” value on LecA (250 nM inhibitor) was 16%; at LecA (1 μM inhibitor) it was 50%. Moreover, the “Inhibition of lectin binding to the cells” value on LecA is listed as “complete inhibition”. Moreover, at LecA, the pIC50 is 6.27. In addition, the microsomal CLint at 1 µM in series [1] amounted to 6.8 µL/min/mg.
As to `Cc1ccc(NC(=O)CCc2ccc(O[C@@H]3O[C@H](CO)[C@H](O)[C@H](O)[C@H]3O)cc2)cc1S(=O)(=O)O` [Compound K2], in the series with H1299 cells, the “Cytotoxicity on H1299 cells” value was “did not exhibit significant toxicity” and the “Inhibition of cell proliferation” value was more than 50%. Also, the negative logarithm of the IC50 (pIC50) at LecA is 5.72.
As to `O=C(CCc1ccc(O[C@@H]2O[C@H](CO)[C@H](O)[C@H](O)[C@H]2O)cc1)Nc1ccc(CCc2ccc(NC(=O)CCc3ccc(O[C@@H]4O[C@H](CO)[C@H](O)[C@H](O)[C@H]4O)cc3)cc2S(=O)(=O)O)c(S(=O)(=O)O)c1` [Compound L2], in the series with H1299 cells, the “Cytotoxicity on H1299 cells” value is on record as “did not exhibit significant toxicity” and the “Inhibition of cell proliferation” value is more than 50%. Also, the “Decrease of LecA binding to H1299 cells” value on LecA (250 nM inhibitor) was “more than 30%”. Further, on LecA (1 μM inhibitor), the “Decrease of LecA binding to H1299 cells” value was determined as 50%. Besides, on LecA, the “Inhibition of lectin binding to the cells” value is reported as “complete inhibition” and the pIC50 was 6.25. The microsomal CLint at 1 µM in series [1] worked out at 29.5 µL/min/mg.
